The results in this text go back to patent US20080280879A1, “SUBSTITUTED HETEROCYCLIC DERIVATIVES AND THEIR PHARMACEUTICAL USE AND COMPOSITIONS” (priority 2007, published 2008).

Common to all, as to format: cell-based, Staphylococcus aureus
The test system of one assay is Staph aureus 2812. The experiment in a line: MIC, microtiter broth dilution (CLSI M7-A7), Assay 1, Table 12 column E, no serum. Particulars: for MIC: Staphylococcus aureus, 2812, Staph aureus 2812, Assay 1, no serum; for MIC, column E: Staph aureus 2812, Assay 1, no serum. The procedure, abridged:
(§1)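 MIC read as lowest drug level giving no macroscopically visible growth, μg/ml. Method: CLSI M7-A7 microtiter broth dilution, M100-S16 interpretation. Serum arm: inoculum in Mueller-Hinton Broth + 50% pooled inactivated human serum. Multiple runs → geometric mean.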

The subject of another assay is Staph aureus 1095 MRSA. The experiment in a line: MIC, microtiter broth dilution (CLSI M7-A7), Assay 1, Table 12 column A, no serum. Particulars: Assay 1, no serum; for MIC: Staphylococcus aureus, MRSA. In short, it runs like this:
as §1
On the technique in general: Broth dilution looks for growth in wells or tubes with falling amounts of substance.

Another assay has as its system Staph aureus 2811. Description: MIC, microtiter broth dilution (CLSI M7-A7), Assay 1, Table 12 column D, no serum. Particulars: for MIC: Staphylococcus aureus, 2811, Staph aureus 2811, Assay 1, no serum; for MIC, column D: Staph aureus 2811, Assay 1, no serum. In short, it runs like this: as §1
For assay [1], the system named is Staph aureus 1146. The experiment in a line: MIC in Mueller-Hinton Broth with 50% pooled inactivated human serum, Assay 1, Table 12. The following applies: for MIC: Staphylococcus aureus, 1146, Staph aureus 1146, Assay 1, 50% human serum, read-out: MIC, column C; for MIC, column C: Staph aureus 1146, Assay 1, 50% human serum. In short, it runs like this: as §1
Assay [2] concerns Staph aureus 1146. Description: MIC, microtiter broth dilution (CLSI M7-A7), Assay 1, Table 12 column B, no serum. The following applies: for MIC: Staphylococcus aureus, 1146, Staph aureus 1146, Assay 1, no serum; for MIC, column B: Staph aureus 1146, Assay 1, no serum. The procedure, abridged:
as §1

Each structure is given as a SMILES string. Values after ≈ are worked out from the molar mass of the structure shown.

What is called MIC is the least concentration at which growth counts as inhibited. As for `COc1ccc2nccc(C(CC[C@@H]3CCN(C4CC(c5ccccc5)C4)C[C@@H]3C(=O)O)N(C)C)c2c1` (stereo partly drawn) [Example 140, (3R,4R)-4-[3-(dimethylamino)-3-(6-methoxyquinolin-4-yl)propyl]-1-(3-phenylcyclobutyl)piperidine-3-carboxylic acid], the MIC with Staph aureus 2812 turned out to be 16 µg/mL (≈ 31.9 µM); in the assay on Staph aureus 1095 MRSA it was 16 µg/mL (≈ 31.9 µM); in the assay with Staph aureus 2811, 16 µg/mL (≈ 31.9 µM); in the assay on Staph aureus 1146 [1], 64 µg/mL (≈ 128 µM); against Staph aureus 1146 [2] it was 16 µg/mL (≈ 31.9 µM).
On to `COc1ccc2ncc(Cl)c(C(O)CCC3(C(=O)O)CCN(C4CC(c5ccccc5)C4)CC3)c2c1` (stereo not drawn) [Example 141, 4-(3-(3-chloro-6-methoxyquinolin-4-yl)-3-hydroxypropyl)-1-(3-phenylcyclobutyl)piperidine-4-carboxylic acid], for which the MIC in the assay with Staph aureus 2812 is 1 µg/mL (≈ 1.96 µM); against Staph aureus 1095 MRSA, 2 µg/mL (≈ 3.93 µM); against Staph aureus 2811, 0.5 µg/mL (≈ 0.982 µM); in the assay with Staph aureus 1146 [1] it was 32 µg/mL (≈ 62.9 µM); in the assay on Staph aureus 1146 [2], 1 µg/mL (≈ 1.96 µM).
Regarding `O=C(O)[C@H]1CN(C2CC(c3ccccc3)C2)CC[C@H]1CCC(O)c1ccnc2ccc(O)cc12` (stereo partly drawn) [Example 142, (3R,4R)-4-[3-hydroxy-3-(6-hydroxyquinolin-4-yl)propyl]-1-(3-phenylcyclobutyl)piperidine-3-carboxylic acid], the MIC in the assay with Staph aureus 2812 is 16 µg/mL (≈ 34.7 µM); in the assay on Staph aureus 1095 MRSA, 32 µg/mL (≈ 69.5 µM); in the assay with Staph aureus 2811, 8 µg/mL (≈ 17.4 µM); in the assay on Staph aureus 1146 [1], greater than 64 µg/mL; in the assay on Staph aureus 1146 [2] it was 16 µg/mL (≈ 34.7 µM).
In the case of `O=C(O)[C@H]1CN(C2CC(c3ccccc3)C2)CC[C@H]1CCC(O)c1ccnc2ccc(OC(F)F)cc12` (stereo partly drawn) [Example 143], in the assay with Staph aureus 2812, the “MIC, column E” value is 1 µg/mL (≈ 1.96 µM). For the same compound, the “MIC, column A” value against Staph aureus 1095 MRSA worked out at 1 µg/mL (≈ 1.96 µM). In addition, the “MIC, column D” value against Staph aureus 2811 stood at 0.5 µg/mL (≈ 0.979 µM). Also, the “MIC, column C” value against Staph aureus 1146 [1] turned out to be 2 µg/mL (≈ 3.92 µM). In addition, the “MIC, column B” value in the assay on Staph aureus 1146 [2] was 0.5 µg/mL (≈ 0.979 µM).
Regarding `COc1ccc2nccc(C(O)CC[C@@H]3CCN(C4CC(c5ccccc5)C4)C[C@@H]3C(N)=O)c2c1` (stereo partly drawn) [Example 144], the “MIC, column E” value with Staph aureus 2812 is listed as “<=.0625 μg/ml”. The “MIC, column A” value in the assay with Staph aureus 1095 MRSA is listed as “<=.0625 μg/ml”. In the assay with Staph aureus 2811, the “MIC, column D” value is given as “<=.0625 μg/ml”. For the same compound, the “MIC, column C” value in the assay on Staph aureus 1146 [1] was found to be 0.25 µg/mL (≈ 0.528 µM). Also, the “MIC, column B” value against Staph aureus 1146 [2] is reported as “<=.0625 μg/ml”.
For the compound `CNC(=O)[C@H]1CN(C2CC(c3ccccc3)C2)CC[C@H]1CCC(O)c1ccnc2ccc(OC)cc12` (stereo partly drawn) [Example 145, (3R,4R)-4-[3-Hydroxy-3-(6-methoxy-quinolin-4-yl)-propyl]-1-(3-phenyl-cyclobutyl)-piperidine-3-carboxylic acid methylamide], the MIC against Staph aureus 2812 is 1 µg/mL (≈ 2.05 µM); against Staph aureus 1095 MRSA it was 0.25 µg/mL (≈ 0.513 µM); against Staph aureus 2811, 0.5 µg/mL (≈ 1.03 µM); in the assay with Staph aureus 1146 [1], 4 µg/mL (≈ 8.2 µM); against Staph aureus 1146 [2], 1 µg/mL (≈ 2.05 µM).
As to `COc1ccc2ncc(F)c(C(O)COC3(C(=O)O)CCN(C4CC(c5ccccc5)C4)CC3)c2c1` (stereo not drawn) [Example 146, 4-(2-(3-fluoro-6-methoxyquinolin-4-yl)-2-hydroxyethoxy)-1-(3-phenylcyclobutyl)piperidine-4-carboxylic acid], the MIC in the assay on Staph aureus 2812 is 32 µg/mL (≈ 64.7 µM); in the assay with Staph aureus 1095 MRSA, 32 µg/mL (≈ 64.7 µM); in the assay with Staph aureus 2811, 32 µg/mL (≈ 64.7 µM); in the assay on Staph aureus 1146 [1], greater than 64 µg/mL; against Staph aureus 1146 [2], 16 µg/mL (≈ 32.4 µM).
For the compound `COc1ccc2ncc(Cl)c(CCNC3(C(=O)O)CCCN(C4CC(c5cccc(C)c5)C4)CC3)c2c1` (stereo not drawn) [Example 153, 4-{[2-(3-chloro-6-methoxyquinolin-4-yl)ethyl]amino}-1-[3-(3-methylphenyl)cyclobutyl]azepane-4-carboxylic acid], the MIC with Staph aureus 2812 was 0.5 µg/mL (≈ 0.958 µM); in the assay with Staph aureus 1095 MRSA it was 4 µg/mL (≈ 7.66 µM); against Staph aureus 2811 it was 0.5 µg/mL (≈ 0.958 µM); in the assay on Staph aureus 1146 [1] it was 2 µg/mL (≈ 3.83 µM); against Staph aureus 1146 [2], 1 µg/mL (≈ 1.92 µM).
With `COc1ccc2ncc(Cl)c(CCNC3(C(=O)O)CCCN(C4CC(c5c(F)cccc5F)C4)CC3)c2c1` (stereo not drawn) [Example 154, 4-{[2-(3-chloro-6-methoxyquinolin-4-yl)ethyl]amino}-1-[3-(2,6-difluorophenyl)cyclobutyl]azepane-4-carboxylic acid], the MIC against Staph aureus 2812 was 0.0625 µg/mL (≈ 0.115 µM); with Staph aureus 1095 MRSA, 0.25 µg/mL (≈ 0.46 µM); in the assay with Staph aureus 2811, 0.0625 µg/mL (≈ 0.115 µM); in the assay on Staph aureus 1146 [1], 4 µg/mL (≈ 7.35 µM); in the assay with Staph aureus 1146 [2], 0.0625 µg/mL (≈ 0.115 µM).
`COc1ccc2ncc(Cl)c(CCNC3(C(=O)O)CCCN(C4CC(c5cccc(F)c5)C4)CC3)c2c1` (stereo not drawn) [Example 155, 4-{[2-(3-chloro-6-methoxyquinolin-4-yl)ethyl]amino}-1-[3-(3-fluorophenyl)cyclobutyl] azepane-4-carboxylic acid]: the minimal inhibitory concentration (MIC) against Staph aureus 2812 was 0.125 µg/mL (≈ 0.238 µM); against Staph aureus 1095 MRSA, 1 µg/mL (≈ 1.9 µM); in the assay on Staph aureus 2811, 0.25 µg/mL (≈ 0.475 µM); in the assay on Staph aureus 1146 [1] it was 4 µg/mL (≈ 7.6 µM); against Staph aureus 1146 [2], 0.125 µg/mL (≈ 0.238 µM).
As for `COc1ccc2ncc(Cl)c(CCNC3(C(=O)O)CCCN(CC4CC4c4cc(F)ccc4F)CC3)c2c1` (stereo not drawn) [Example 156, 4-{[2-(3-chloro-6-methoxyquinolin-4-yl)ethyl]amino}-1-{[2-(2,5-difluorophenyl)cyclopropyl]methyl}azepane-4-carboxylic acid], the minimum inhibitory concentration (MIC) is 0.25 µg/mL (≈ 0.46 µM) in the assay with Staph aureus 2812; 1 µg/mL (≈ 1.84 µM) in the assay on Staph aureus 1095 MRSA; 0.5 µg/mL (≈ 0.919 µM) in the assay with Staph aureus 2811; greater than 33 µg/mL in the assay with Staph aureus 1146 [1]; 0.25 µg/mL (≈ 0.46 µM) in the assay with Staph aureus 1146 [2].
Take `COc1ccc2ncc(Cl)c(CCNC3(C(=O)O)CCCN(C4CC(c5cccc(C(F)(F)F)c5)C4)CC3)c2c1` (stereo not drawn) [Example 157, 4-{[2-(3-chloro-6-methoxyquinolin-4-yl)ethyl]amino}-1-{3-[3-(trifluoromethyl)phenyl]cyclobutyl}azepane-4-carboxylic acid]: the MIC is 0.5 µg/mL (≈ 0.868 µM) against Staph aureus 2812; 4 µg/mL (≈ 6.94 µM) in the assay with Staph aureus 1095 MRSA; 1 µg/mL (≈ 1.74 µM) with Staph aureus 2811; greater than 33 µg/mL in the assay with Staph aureus 1146 [1]; 1 µg/mL (≈ 1.74 µM) against Staph aureus 1146 [2].
With `CCc1noc(C2CC(N3CC[C@@H](CCC(O)c4ccnc5ccc(OC)cc45)[C@@H](C(=O)O)C3)C2)n1` (stereo partly drawn) [Example 162, (3R,4R)-1-[3-(3-ethyl-1,2,4-oxadiazol-5-yl)cyclobutyl]-4-[3-hydroxy-3-(6-methoxyquinolin-4-yl)propyl]piperidine-3-carboxylic acid], the MIC against Staph aureus 2812 is 64 µg/mL (≈ 129 µM); against Staph aureus 1095 MRSA, 64 µg/mL (≈ 129 µM); against Staph aureus 2811, 32 µg/mL (≈ 64.7 µM); in the assay on Staph aureus 1146 [1] it was greater than 64 µg/mL; in the assay with Staph aureus 1146 [2], 64 µg/mL (≈ 129 µM).
As for `COc1ccc2nccc(C(O)CC[C@@H]3CCN(C4CC(c5nc(C6CCC6)no5)C4)C[C@@H]3C(=O)O)c2c1` (stereo partly drawn) [Example 163, (3R,4R)-1-[3-(3-cyclobutyl-1,2,4-oxadiazol-5-yl)cyclobutyl]-4-[3-hydroxy-3-(6-methoxyquinolin-4-yl)propyl]piperidine-3-carboxylic acid], the MIC in the assay with Staph aureus 2812 was greater than 64 µg/mL; against Staph aureus 1095 MRSA it was greater than 64 µg/mL; in the assay on Staph aureus 2811, greater than 64 µg/mL; with Staph aureus 1146 [1], greater than 64 µg/mL; in the assay with Staph aureus 1146 [2], 64 µg/mL (≈ 123 µM).
For the compound `COc1ccc2nccc(C(O)CC[C@@H]3CCN(C4CC(c5nc(C(C)(C)C)no5)C4)C[C@@H]3C(=O)O)c2c1` (stereo partly drawn) [Example 164, (3R,4R)-1-[3-(3-tert-butyl-1,2,4-oxadiazol-5-yl)cyclobutyl]-4-[3-hydroxy-3-(6-methoxyquinolin-4-yl)propyl]piperidine-3-carboxylic acid], the MIC was 64 µg/mL (≈ 122 µM) against Staph aureus 2812; greater than 64 µg/mL with Staph aureus 1095 MRSA; 64 µg/mL (≈ 122 µM) in the assay on Staph aureus 2811; greater than 64 µg/mL in the assay with Staph aureus 1146 [1]; 64 µg/mL (≈ 122 µM) against Staph aureus 1146 [2].
